# Experiments:
# [1] = tested on: GLXMAW (Soybean, Williams); experiment: Preemergence herbicidal evaluation; format: in vivo, Glycine max, (L.) Merr. cv Williams; conditions: rated 4-5 weeks after treatment
# [2] = tested on: TRZAWR (Wheat, Winter, cv Riband); experiment: Postemergence herbicidal evaluation; format: in vivo, Triticum aestivum; conditions: postemergence
# Outline: (§1)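 Visual 0–9 injury scores versus control plants, covering stand, vigour, malformation, size, chlorosis and general appearance, taken four to five weeks post-spray and averaged over replicate tests. Plants were sprayed at roughly two weeks old and held on greenhouse benches.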
# [3] = tested on: ECHORC (Echinochloa oryzoides); experiment: Flooded paddy, preemergence weed control; format: in vivo, Echinochloa oryzoides (Ard.) Fritsch.; conditions: rated 3-4 weeks after treatment, 0-9 rating scale
# Outline: (§2)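 Silt loam, sowing depth ≤0.5 cm; permanent flood 1.5–3 cm above soil; greenhouse culture after treatment. Readout: 0-9 visual scale (stand, vigor, malformation, size, chlorosis, appearance) vs control.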
# ZEAMX (Corn, Field) = experiment: Preemergence herbicidal evaluation; format: in vivo, Zea mays, L.; conditions: rated 4-5 weeks after treatment
# [4] = tested on: IPOHE (Ipomoea hederacea); experiment: Postemergence herbicidal evaluation; format: in vivo, (L.) Jacq.; conditions: postemergence
# Outline: as §1
# CYPIR (Cyperus iria) = experiment: Flooded paddy, preemergence weed control; format: in vivo; conditions: rated 3-4 weeks after treatment, 0-9 rating scale
# Outline: as §2
# [5] = tested on: MOOVA (Monochoria vaginalis); experiment: Flooded paddy, preemergence weed control; format: in vivo, Presl.; conditions: rated 3-4 weeks after treatment, 0-9 rating scale
# Outline: as §2
# [6] = tested on: ECHCG (Echinochloa crus-galli); experiment: Preemergence herbicidal evaluation; format: in vivo, (L.) Beau; conditions: rated 4-5 weeks after treatment
# Outline: (§3)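 Steps: mix seeds with potting soil; plant on ~1 inch soil per cup; spray compound in aqueous acetone; hold on greenhouse benches with routine watering; rate 0–9 visually against control at 4–5 weeks.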
# SETVI (Setaria viridis) [7] = experiment: Preemergence herbicidal evaluation; format: in vivo, (L.) Beau; conditions: rated 4-5 weeks after treatment
# Outline: as §3
# SETVI (Setaria viridis) [8] = experiment: Postemergence herbicidal evaluation; format: in vivo, (L.) Beau; conditions: postemergence
# Outline: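 Seedlings about two weeks old were sprayed with compound in 50/50 acetone/water plus 0.5% TWEEN 20, at the equivalent of about 0.0040 to 1.000 kg/ha. Plants were kept in a greenhouse and visually rated 0-9 against a control four to five weeks after treatment. Repeat tests were averaged.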
Compound,Preemergence herbicidal rating GLXMAW ([1]; Rate 0.0620 kg/ha),Preemergence herbicidal rating GLXMAW ([1]; Rate 0.1250 kg/ha),Preemergence herbicidal rating GLXMAW ([1]; Rate 0.2500 kg/ha),TRZAWR herbicidal rating ([2]; rate 0.0320 kg/ha),TRZAWR herbicidal rating ([2]; rate 0.0620 kg/ha),"herbicidal rating, ECHORC ([3]; rate 0.0080 kg/ha)","herbicidal rating, ECHORC ([3]; rate 0.0320 kg/ha)","herbicidal rating, ECHORC ([3]; rate 0.1250 kg/ha)","Preemergence herbicidal rating ZEAMX (ZEAMX (Corn, Field); Rate 0.0620 kg/ha)","Preemergence herbicidal rating ZEAMX (ZEAMX (Corn, Field); Rate 0.1250 kg/ha)","Preemergence herbicidal rating ZEAMX (ZEAMX (Corn, Field); Rate 0.2500 kg/ha)",IPOHE herbicidal rating ([4]; rate 0.0320 kg/ha),IPOHE herbicidal rating ([4]; rate 0.0620 kg/ha),"herbicidal rating, CYPIR (CYPIR (Cyperus iria); rate 0.0080 kg/ha)","herbicidal rating, CYPIR (CYPIR (Cyperus iria); rate 0.0320 kg/ha)","herbicidal rating, CYPIR (CYPIR (Cyperus iria); rate 0.1250 kg/ha)","herbicidal rating, MOOVA ([5]; rate 0.0080 kg/ha)","herbicidal rating, MOOVA ([5]; rate 0.0320 kg/ha)","herbicidal rating, MOOVA ([5]; rate 0.1250 kg/ha)",Preemergence herbicidal rating ECHCG ([6]; Rate 0.0620 kg/ha),further results
"CC(C)C1COC(c2nsc3ccc(-n4c(=O)cc(C(F)(F)F)n(C)c4=O)cc23)=N1 (stereo not drawn) [Compound 74, 3-[3-(4-isopropyl-2-oxazolin-2-yl)-1,2-benzisothiazol-5-yl]-1-methyl-6-(trifluoromethyl)uracil]",1.0,1.0,9.0,3.5,4.0,5.5,8.0,9.0,2.0,2.0,4.0,7.0,9.0,0.0,6.0,9.0,4.5,9.0,9.0,0.0,Preemergence herbicidal rating ECHCG ([6]; Rate 0.1250 kg/ha): 2.0; Preemergence herbicidal rating ECHCG ([6]; Rate 0.2500 kg/ha): 6.0; Preemergence herbicidal rating SETVI (SETVI (Setaria viridis) [7]; Rate 0.0620 kg/ha): 0.0; Preemergence herbicidal rating SETVI (SETVI (Setaria viridis) [7]; Rate 0.1250 kg/ha): 2.0; Preemergence herbicidal rating SETVI (SETVI (Setaria viridis) [7]; Rate 0.2500 kg/ha): 8.0; SETVI herbicidal rating (SETVI (Setaria viridis) [8]; rate 0.0320 kg/ha): 2.0; SETVI herbicidal rating (SETVI (Setaria viridis) [8]; rate 0.0620 kg/ha): 2.0
"Cn1c(C(F)(F)F)cc(=O)n(-c2ccc3snc(C4=NCCO4)c3c2)c1=O [Compound 75, 1-methyl-3-[3(2-oxazolin-2-yl)-1,2-benzisothiazol-5-yl]-6-(trifluoromethyl)uracil]",0.0,1.0,4.0,2.0,3.5,1.5,4.0,8.5,1.0,2.0,3.0,9.0,9.0,0.0,7.0,9.0,0.0,7.0,9.0,0.0,Preemergence herbicidal rating ECHCG ([6]; Rate 0.1250 kg/ha): 1.0; Preemergence herbicidal rating ECHCG ([6]; Rate 0.2500 kg/ha): 6.0; Preemergence herbicidal rating SETVI (SETVI (Setaria viridis) [7]; Rate 0.0620 kg/ha): 0.0; Preemergence herbicidal rating SETVI (SETVI (Setaria viridis) [7]; Rate 0.1250 kg/ha): 1.0; Preemergence herbicidal rating SETVI (SETVI (Setaria viridis) [7]; Rate 0.2500 kg/ha): 6.0; SETVI herbicidal rating (SETVI (Setaria viridis) [8]; rate 0.0320 kg/ha): 2.0; SETVI herbicidal rating (SETVI (Setaria viridis) [8]; rate 0.0620 kg/ha): 4.0
"C=CC1COC(c2nsc3ccc(-n4c(=O)cc(C(F)(F)F)n(C)c4=O)cc23)O1 (stereo not drawn) [Compound 76, 1-methyl-6-(trifluoromethyl)-3-[3-(4-vinyl-1,3-dioxolan-2-yl)-1,2-benzisothiazol-5-yl]uracil]",7.5,9.0,9.0,3.0,3.5,5.0,7.0,9.0,8.5,8.5,9.0,7.0,9.0,7.0,8.0,9.0,9.0,9.0,9.0,9.0,Preemergence herbicidal rating ECHCG ([6]; Rate 0.1250 kg/ha): 9.0; Preemergence herbicidal rating ECHCG ([6]; Rate 0.2500 kg/ha): 9.0; Preemergence herbicidal rating SETVI (SETVI (Setaria viridis) [7]; Rate 0.0620 kg/ha): 9.0; Preemergence herbicidal rating SETVI (SETVI (Setaria viridis) [7]; Rate 0.1250 kg/ha): 9.0; Preemergence herbicidal rating SETVI (SETVI (Setaria viridis) [7]; Rate 0.2500 kg/ha): 9.0; SETVI herbicidal rating (SETVI (Setaria viridis) [8]; rate 0.0320 kg/ha): 7.0; SETVI herbicidal rating (SETVI (Setaria viridis) [8]; rate 0.0620 kg/ha): 9.0
"CCCC1COC(c2nsc3ccc(-n4c(=O)cc(C(F)(F)F)n(C)c4=O)cc23)O1 (stereo not drawn) [Compound 77, 1-methyl-3-[3-(4-propyl-1,3-dioxolan-2-yl)-1,2-benzisothiazol-5-yl]-6-(trifluoromethyl)uracil]",4.0,6.0,9.0,2.0,3.5,0.0,5.0,9.0,7.0,7.5,8.5,9.0,9.0,0.0,7.0,9.0,0.0,9.0,9.0,8.5,Preemergence herbicidal rating ECHCG ([6]; Rate 0.1250 kg/ha): 9.0; Preemergence herbicidal rating ECHCG ([6]; Rate 0.2500 kg/ha): 9.0; Preemergence herbicidal rating SETVI (SETVI (Setaria viridis) [7]; Rate 0.0620 kg/ha): 8.5; Preemergence herbicidal rating SETVI (SETVI (Setaria viridis) [7]; Rate 0.1250 kg/ha): 9.0; Preemergence herbicidal rating SETVI (SETVI (Setaria viridis) [7]; Rate 0.2500 kg/ha): 9.0; SETVI herbicidal rating (SETVI (Setaria viridis) [8]; rate 0.0320 kg/ha): 9.0; SETVI herbicidal rating (SETVI (Setaria viridis) [8]; rate 0.0620 kg/ha): 5.0
"Cn1c(C(F)(F)F)cc(=O)n(-c2ccc3snc(C4OCC(c5ccccc5)O4)c3c2)c1=O (stereo not drawn) [Compound 78, 1-methyl-3-[3-(4-phenyl-1,3-dioxolan-2-yl)-1,2-benzisothiazol-5-yl]-6-(trifluoromethyl)uracil]",2.5,6.0,5.0,3.5,5.0,8.0,9.0,9.0,3.0,3.5,6.0,9.0,9.0,0.0,9.0,9.0,7.7,9.0,9.0,8.5,Preemergence herbicidal rating ECHCG ([6]; Rate 0.1250 kg/ha): 9.0; Preemergence herbicidal rating ECHCG ([6]; Rate 0.2500 kg/ha): 8.0; Preemergence herbicidal rating SETVI (SETVI (Setaria viridis) [7]; Rate 0.0620 kg/ha): 9.0; Preemergence herbicidal rating SETVI (SETVI (Setaria viridis) [7]; Rate 0.1250 kg/ha): 9.0; Preemergence herbicidal rating SETVI (SETVI (Setaria viridis) [7]; Rate 0.2500 kg/ha): 9.0; SETVI herbicidal rating (SETVI (Setaria viridis) [8]; rate 0.0320 kg/ha): 7.0; SETVI herbicidal rating (SETVI (Setaria viridis) [8]; rate 0.0620 kg/ha): 9.0
"Cn1c(C(F)(F)F)cc(=O)n(-c2ccc3snc(-c4sccc4CBr)c3c2)c1=O [Compound 80, 3-[3-[3-(bromomethyl)-2-thienyl]-1,2-benzisothiazol-5-yl]-1-methyl-6-(trifluoromethyl)uracil]",0.5,0.5,6.0,3.0,3.5,1.0,4.0,8.0,0.5,1.5,2.5,9.0,9.0,0.0,4.5,9.0,0.0,9.0,9.0,0.5,Preemergence herbicidal rating ECHCG ([6]; Rate 0.1250 kg/ha): 2.0; Preemergence herbicidal rating ECHCG ([6]; Rate 0.2500 kg/ha): 6.5; Preemergence herbicidal rating SETVI (SETVI (Setaria viridis) [7]; Rate 0.0620 kg/ha): 1.5; Preemergence herbicidal rating SETVI (SETVI (Setaria viridis) [7]; Rate 0.1250 kg/ha): 4.5; Preemergence herbicidal rating SETVI (SETVI (Setaria viridis) [7]; Rate 0.2500 kg/ha): 7.5; SETVI herbicidal rating (SETVI (Setaria viridis) [8]; rate 0.0320 kg/ha): 2.0; SETVI herbicidal rating (SETVI (Setaria viridis) [8]; rate 0.0620 kg/ha): 3.0

# From patent publication US6706663B2, “Herbicidal 3-heterocyclic substituted benzisothiazole and benzisoxazole compounds” (Wyeth, priority 2000, dated 2004)
